PubChem BioAssay (NCI)
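Growth conditions: 96-well plates. Treatment: test compound, 48 hours, 5 concentrations. Analysis: linear interpolation between bracketing concentrations; unreached endpoints set to highest concentration. GI50: concentration for 50% inhibition of growth. TGI: concentration producing complete growth inhibition.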

Experiments:
Assay in all cases: DTP human tumour cell line panel, 48 h
[1] = test system: HL-60(TB) leukemia
[2] = test system: HOP-62 NSCLC
[3] = test system: KM12 colon
[4] = test system: OVCAR-5 ovarian
[5] = test system: RPMI-8226 leukemia
[6] = test system: RXF 393 renal
[7] = test system: SF-539 CNS
[8] = test system: SK-MEL-28 melanoma
[9] = test system: SK-OV-3 ovarian
[10] = test system: UO-31 renal

SMILES	GI50 [1] [µM]	TGI [1] [µM]	GI50 [2] [µM]	TGI [2] [µM]	GI50 [3] [µM]	TGI [3] [µM]	GI50 [4] [µM]	TGI [4] [µM]	GI50 [5] [µM]	TGI [5] [µM]	GI50 [6] [µM]	TGI [6] [µM]	GI50 [7] [µM]	TGI [7] [µM]	GI50 [8] [µM]	TGI [8] [µM]	GI50 [9] [µM]	TGI [9] [µM]	GI50 [10] [µM]	TGI [10] [µM]
CCn1cnc2c(Nc3cccc(Cl)c3)nc(N[C@@H]3CCCC[C@@H]3N)nc21	1.78	3.93	1.52	3.71	0.733	2.67	1.81	7.92	1.8	4.39	1.35	2.89	1.42	2.8	1.68	3.42	3.85	10.8	1.6	4.04
COC1=CC(c2ccc[nH]2)=N/C1=C\c1[nH]c(C)c(C(=O)CCCCC(=O)Nc2ccccc2)c1C	1.84	5.37	2.98	9.7	1.03	2.3	3.14	16.5	0.142	1.82	1.03	2.23	3.78	9.78	1.63	3.2	18.3	40.1	1.43	3.12
CC(C)=CC(=O)Cc1nc2cc(C)c(C)cc2[nH]c1=O	–	> 100	–	> 100	–	> 100	–	> 100	–	> 100	–	> 100	–	> 100	–	> 100	–	> 100	–	> 100
COc1ccc(/C(C)=N/OC(=O)c2c(-c3ccccc3Cl)noc2C)cc1CN1CCOCC1	–	56.1	–	62.1	–	70.5	–	45.9	–	93.6	–	77.8	–	56.7	–	54.4	–	> 100	–	22.3
O=C(Nc1nc2ncn(CC(COc3ccccc3)OC(=O)c3ccccc3)c2c(=O)[nH]1)c1ccccc1 (stereo not drawn)	–	> 100	–	> 100	–	> 100	–	> 100	–	> 100	–	> 100	–	> 100	–	> 100	–	> 100	–	> 100
CCOC(=O)c1sc(Nc2ccc(Cl)cc2)nc1C	3.16	7.17	1.89	5.06	–	–	2.08	6.63	1.83	5.65	2.11	4.75	1.66	3.72	1.96	4.23	2.44	6.8	1.15	2.5
COc1ccc(-c2ccc(C3CC(c4ccc(Cl)cc4)=NN3)o2)c([N+](=O)[O-])c1 (stereo not drawn)	> 100	> 100	> 100	> 100	–	–	> 100	> 100	> 100	> 100	> 100	> 100	> 100	> 100	> 100	> 100	> 100	> 100	> 100	> 100
CC(=O)O[C@H]1C(=O)[C@@]2(C)C(C(OC(=O)c3ccccc3)[C@]3(O)CC(OC(=O)C(O)C(NC(=O)c4ccc(C)cc4)c4ccccc4)C(C)=C1C3(C)C)[C@]1(OC(C)=O)CO[C@@H]1C[C@@H]2O (stereo partly drawn)	–	3.35	–	14.1	–	19.8	–	3.98	–	6.77	–	0.143	–	0.0119	–	–	–	0.0284	–	9.23
NCCNC(=S)S	–	> 100	–	> 100	–	> 100	–	> 100	–	58.8	–	> 100	–	–	–	> 100	–	> 100	–	> 100
Cc1cc(O)cc2c1O[C@@]1(C)CCC3[C@@]4(C)CC[C@H](O)C(C)(C)C4CC[C@@]3(C)[C@H]1C2 (stereo partly drawn)	–	13.5	–	–	–	21.4	–	–	–	5.07	–	13.3	–	6.43	–	20.3	–	12.5	–	22.6
Nc1c(C(=O)Nc2ccccc2Cl)sc2nc3c(cc12)CCCCCC3	2.73	> 100	–	–	3.67	> 100	6.88	> 100	> 100	> 100	1.85	3.98	2.65	8.12	10.2	> 100	2.65	7.88	2.19	5.01
NCc1nnn(Cc2ccccc2)c1N	–	> 100	–	> 100	–	> 100	–	> 100	–	> 100	–	> 100	–	> 100	–	> 100	–	> 100	–	–
Nc1ccn(C2CC(CO)C(O)C2O)c(=O)n1 (stereo not drawn)	–	> 57.7	–	> 57.7	–	> 57.7	–	–	–	> 57.7	–	> 57.7	–	> 57.7	–	> 57.7	–	> 57.7	–	> 57.7
